Assay results published in the supplement of paper PMC10307832.

What was measured:
Assay in all cases: relative viability (nuclei count vs DMSO), 5 days (fraction); higher = more cells survive
CUDC-101 + Crizotinib = compound: C#Cc1cccc(Nc2ncnc3cc(OC)c(OCCCCCCC(=O)NO)cc23)c1 [CUDC-101] + C[C@@H](Oc1cc(-c2cnn(C3CCNCC3)c2)cnc1N)c1c(Cl)ccc(F)c1Cl [Crizotinib] (partner 1 µM)
Procedure, shortened: (§1)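 Values are medians from duplicate plates. Each reflects relative viability, defined as the nuclei count of treated wells over that of vehicle wells. Lung cancer cell lines in 1536-well plates were pin-tool dosed one day after seeding with one drug alone or with a fixed anchor-drug dose plus five library-drug doses (not always all listed) in √10 steps, then fixed, stained and imaged at 4× after 5 days.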

CUDC-101 + Linsitinib = compound: C#Cc1cccc(Nc2ncnc3cc(OC)c(OCCCCCCC(=O)NO)cc23)c1 [CUDC-101] + C[C@]1(O)C[C@@H](c2nc(-c3ccc4ccc(-c5ccccc5)nc4c3)c3c(N)nccn32)C1 [Linsitinib] (partner 1 µM)
Procedure, shortened: as §1

[1] = compound: C1=CC=C2C(=C1)N=C(S2)C(C#N)C3=NC(=NC=C3)NCCC4=CN=CC=C4 + CC(=O)c1c(C)c2cnc(Nc3ccc(N4CCNCC4)cn3)nc2n(C2CCCC2)c1=O [Palbociclib] (partner 0.5 µM)
Procedure, shortened: as §1

NVP-TAE684 + Lapatinib = compound: COc1cc(N2CCC(N3CCN(C)CC3)CC2)ccc1Nc1ncc(Cl)c(Nc2ccccc2S(=O)(=O)C(C)C)n1 [NVP-TAE684] + CS(=O)(=O)CCNCc1ccc(-c2ccc3ncnc(Nc4ccc(OCc5cccc(F)c5)c(Cl)c4)c3c2)o1 [Lapatinib] (partner 2 µM)
Procedure, shortened: as §1

| Cell Line | relative viability (CUDC-101 + Crizotinib; first compound 0.01 µM) | relative viability (CUDC-101 + Crizotinib; first compound 0.03162 µM) | relative viability (CUDC-101 + Crizotinib; first compound 0.1 µM) | relative viability (CUDC-101 + Crizotinib; first compound 0.3162 µM) | relative viability (CUDC-101 + Crizotinib; first compound 1 µM) | relative viability (CUDC-101 + Linsitinib; first compound 0.01 µM) | relative viability (CUDC-101 + Linsitinib; first compound 0.03162 µM) | relative viability (CUDC-101 + Linsitinib; first compound 0.1 µM) | relative viability (CUDC-101 + Linsitinib; first compound 0.3162 µM) | relative viability (CUDC-101 + Linsitinib; first compound 1 µM) | relative viability ([1]; first compound 0.005 µM) | relative viability ([1]; first compound 0.05 µM) | relative viability ([1]; first compound 0.1581 µM) | relative viability ([1]; first compound 0.5 µM) | relative viability (NVP-TAE684 + Lapatinib; first compound 0.2 µM) | relative viability (NVP-TAE684 + Lapatinib; first compound 0.6325 µM) | relative viability (NVP-TAE684 + Lapatinib; first compound 2 µM) | relative viability ([1]; first compound 0.01581 µM) |
| --- | --- | --- | --- | --- | --- | --- | --- | --- | --- | --- | --- | --- | --- | --- | --- | --- | --- | --- |
| PC-3 [JPC-3] | 0.983 | 0.97 | 0.82 | 0.82 | 0.278 | 0.987 | 0.91 | 0.789 | 0.667 | 0.383 | 0.592 | 0.534 | 0.532 | 0.515 | 0.472 | 0.446 | 0.387 | – |
| IA-LM | 0.944 | 0.91 | 0.868 | 0.587 | 0.466 | 0.676 | 0.665 | 0.365 | 0.544 | 0.548 | – | – | – | – | 0.698 | 0.66 | 0.427 | – |
| NCI-H520 | 0.743 | – | 0.756 | 0.636 | 0.316 | 0.997 | – | 1.05 | 0.982 | 0.485 | 0.193 | 0.231 | 0.259 | 0.213 | 0.761 | 0.884 | 0.454 | 0.266 |
| A549 | 0.855 | 1 | 0.927 | 0.793 | 0.632 | 0.634 | 0.444 | 0.537 | 0.731 | 0.487 | – | – | – | – | 1.21 | – | 0.192 | – |
| BEN | 1.04 | 0.772 | 0.933 | 0.809 | 0.579 | 1.04 | 0.719 | 1.12 | 0.824 | 0.628 | 0.417 | 0.473 | 0.473 | 0.444 | 0.579 | 0.552 | 0.62 | 0.472 |
| COR-L 105 | 0.724 | 0.825 | 0.725 | 0.433 | 0.267 | 1.08 | 0.934 | 0.921 | 0.874 | 0.396 | 0.376 | 0.435 | 0.39 | 0.345 | 0.376 | 0.319 | 0.235 | 0.408 |
| SW 900 | – | – | – | – | – | – | – | – | – | – | 0.441 | 0.412 | 0.586 | 0.458 | – | – | – | 0.496 |
| NCI-H522 | – | – | – | – | – | – | – | – | – | – | 0.95 | 0.96 | 0.917 | 1.09 | – | – | – | 0.958 |
| NCI-H1793 | – | – | – | – | – | 0.898 | 0.73 | 0.803 | 0.779 | 0.633 | – | 0.29 | 0.319 | 0.276 | 0.925 | 0.499 | 0.611 | 0.344 |
| NCI-H1563 | 0.721 | 0.874 | 0.891 | 0.791 | 0.68 | 1.22 | 1.06 | 1.4 | 1.18 | 1.11 | – | – | – | – | 0.95 | 0.858 | 0.655 | – |
| NCI-H1650 | 0.859 | 0.782 | 0.942 | 0.796 | 0.595 | – | – | – | – | – | 0.318 | 0.336 | 0.395 | 0.175 | 0.958 | 0.684 | 0.347 | 0.272 |
| NCI-H2170 | 1.14 | 1.23 | 1.17 | 1.2 | 0.732 | – | – | – | – | – | 0.284 | 0.38 | 0.43 | 0.34 | 0.253 | 0.244 | 0.247 | 0.391 |
| NCI-H1395 | – | – | – | – | – | 1.13 | 1.05 | 0.963 | 1.07 | 0.888 | 0.616 | 0.524 | 0.726 | 0.601 | 1.29 | 0.921 | 0.859 | – |
| LCLC-103H | 0.891 | 0.916 | 1.08 | 1.08 | 0.957 | 1.12 | 1.11 | 1.11 | 1.11 | 1.15 | 0.491 | 0.514 | 0.522 | 0.485 | – | – | – | 0.468 |
| NCI-H2342 | – | – | – | – | – | – | – | – | – | – | 0.481 | 0.52 | 0.501 | 0.557 | – | – | – | 0.513 |
| EBC-1 | 0.17 | 0.182 | 0.202 | 0.147 | 0.127 | 0.954 | 0.904 | 0.766 | 0.762 | 0.623 | – | – | – | – | 0.221 | 0.223 | 0.192 | – |
| NCI-H441 | 0.833 | 0.739 | 0.87 | 0.843 | 0.514 | 0.748 | 0.662 | 0.579 | 0.779 | 0.358 | 0.231 | 0.232 | 0.241 | 0.187 | – | – | – | 0.184 |
| ChaGo-K-1 | 1.17 | 1.14 | 1.12 | 1.2 | 0.924 | – | – | – | – | – | 0.731 | 0.903 | 1.01 | 0.911 | – | – | – | 0.979 |
| NCI-H596 | 0.675 | 1 | 1.01 | 0.979 | 0.536 | 1.08 | 0.923 | 1.03 | 1.13 | 0.882 | – | – | – | – | 0.915 | 0.949 | 0.893 | – |
| NCI-H1299 | 0.926 | 0.957 | 0.998 | 0.837 | 0.934 | 0.905 | 0.99 | 0.936 | 0.994 | 0.973 | – | – | – | – | 1.03 | 0.964 | 0.836 | – |
| Calu-6 | 0.835 | 0.958 | 0.745 | 0.664 | 0.547 | 0.989 | 0.897 | 1.04 | 1.01 | 0.869 | – | – | – | – | 1.31 | 0.94 | – | – |
| NCI-H1703 | 1.07 | 0.707 | 0.765 | 0.712 | 0.477 | – | 0.559 | 0.636 | 1.15 | 0.745 | – | – | – | – | 1.41 | 0.994 | 0.392 | – |
| NCI-H1648 | – | – | – | – | – | – | – | – | – | – | – | – | 0.331 | 0.281 | – | – | – | 0.294 |
